# Results from patent EP4790048A1, “S1PR4 REGULATOR COMPOUND FOR AUTOIMMUNE DISEASE TREATMENT AND APPLICATION THEREOF” (Shengyuan Zetong (Shanghai) Pharmaceutical Co., Ltd, priority 2023, dated 2025).
# Residue numbers refer to the chain shown, from its start. Read-outs that look alike come from different tables or passages of the source.
# How the values were obtained:
# hS1P4 [1] = molecular target: T1, hS1P4 (Homo sapiens, UniProt O95977); test: Tango β-arrestin recruitment luciferase assay, Tango-hS1P4-CHO; type: cell-based
# T1 construct: expressed in transfected cells; host or cells: CHO
# T1 sequence (O95977 1-384): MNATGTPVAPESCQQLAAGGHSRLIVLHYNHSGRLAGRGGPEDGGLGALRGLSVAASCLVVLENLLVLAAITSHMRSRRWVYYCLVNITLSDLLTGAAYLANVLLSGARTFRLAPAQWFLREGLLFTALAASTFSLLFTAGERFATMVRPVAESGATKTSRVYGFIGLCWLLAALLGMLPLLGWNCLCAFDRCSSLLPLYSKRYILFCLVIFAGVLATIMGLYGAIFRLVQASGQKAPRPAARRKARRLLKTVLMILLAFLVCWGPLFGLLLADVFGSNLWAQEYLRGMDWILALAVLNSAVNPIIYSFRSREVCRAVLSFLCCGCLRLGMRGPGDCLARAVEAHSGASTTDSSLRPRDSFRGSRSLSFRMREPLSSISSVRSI
# Summary of the method: (§1)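 CHO Tango cells (receptor–V2 tail–TEV/tTA fusion, β-arrestin 2–TEV, UAS-luciferase reporter) plated overnight (20 h) at 37°C, then treated 20 h with compounds, top final 45 µM, 9 five-fold dilutions, triplicates. Luciferase luminescence read; BAF-312 positive control at 1 µM (S1PR1) or 25 µM (S1PR4).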
# hS1P4 [2] = test: as above; type: cell-based, human; conditions: S1PR4 versus S1PR1, β-arrestin recruitment EC50
# Summary of the method: as §1
# S1PR2 = molecular target: T2, S1PR2 (Homo sapiens, UniProt O95136); test: FLIPR assay, S1PR2-CHO cell line; type: cell-based; conditions: mean ± SD
# T2 construct: expressed in transfected cells
# T2 sequence (O95136 whole entry, species assumed): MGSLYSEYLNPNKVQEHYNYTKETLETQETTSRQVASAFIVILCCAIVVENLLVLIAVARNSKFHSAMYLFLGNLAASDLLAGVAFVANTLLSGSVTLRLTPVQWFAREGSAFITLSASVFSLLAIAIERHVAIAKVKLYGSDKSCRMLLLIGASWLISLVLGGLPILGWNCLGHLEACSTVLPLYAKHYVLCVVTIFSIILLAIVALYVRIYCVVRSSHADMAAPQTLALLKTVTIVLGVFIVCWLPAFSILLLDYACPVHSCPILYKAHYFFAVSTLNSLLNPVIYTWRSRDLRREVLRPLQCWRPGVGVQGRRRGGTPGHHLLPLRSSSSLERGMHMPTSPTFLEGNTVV
# hS1P4-R-79C = molecular target: T3, hS1P4-R-79C (Homo sapiens, UniProt O95977, R79C); test: Tango β-arrestin recruitment luciferase assay, Tango-hS1P4-R-79C-CHO (S1PR4 mutant); type: cell-based; conditions: 20 h drug treatment
# T3 construct: expressed in transfected cells; host or cells: CHO
# T3 sequence (O95977 1-384 R79C): T1 sequence (O95977 1-384) with R79C
# Text: The Tango assay detects ligand-dependent GPCR activity through the interaction between β-arrestin and GPCRs. […] The NTEV fragment and the tetracycline transactivator (tTA), an artificial transcription factor, are fused at the C-terminus of the GPCR, while the CTEV fragment is fused to human β-arrestin 2. To enhance the stability of the interaction between GPCR and β-arrestin, a short sequence from the C-terminus of the human arginine vasopressin receptor 2 (V2 tail) is inserted between the GPCR and NTEV. The V2 tail contains multiple GRK phosphorylation sites, which strengthen β-arrestin binding upon phosphorylation. The CTEV fragment carries the stabile point mutation S219P and is truncated at residue 221 to remove the autoinhibitory C-terminal tail. Meanwhile, β-arrestin 2 is truncated to lack the entire C-terminal tail (residues 383-410 deleted). This truncation confers robust stimulus-dependent receptor desensitization, thereby improving detection sensitivity compared with wild-type β-arrestin 2. The UAS reporter construct consists of upstream activating sequence (UAS) elements, a minimal CMV promoter, and a tTA-dependent luciferase reporter gene. Therefore, constructing Tango cells requires the co-transfection of the above three plasmids into host cells. Upon GPCR activation and β-arrestin recruitment, the TEV enzyme at the β-arrestin terminus cleaves tTA from the GPCR C-terminus. The released tTA initiates tTA-dependent luciferase transcription, and compound activity is ultimately determined by measuring luminescence intensity.
# • 1) Tango cell line from was digested from the culture dish respectively. After cell counting, the cells were plated at a density of 10,000 cells per well with […] into a white opaque 96-well plate (add 60 µL D'Hanks to the surrounding wells), and incubated overnight (20 h) in a 5% CO2 incubator at 37°C. The cell density will reach approximately 90% the next day. • 2) After 20 h, 30 µL of serially diluted compound solution was added to each well. The control group was supplemented with 30 µL F12K complete medium. Each group had three replicate wells. • 3) Samples were collected after 20 h of drug treatment.
# (All compounds were tested at a final concentration of 45 µM, with 9 serial dilutions at 5-fold intervals. 1 µM BAF-312 was used as the positive control for S1PR1, and 25 µM BAF-312 was used as the positive control for S1PR4.
# S1PR4 = molecular target: T4, S1PR4 (Homo sapiens, UniProt O95977); test: S1PR4 internalization and recovery test in S1PR4-293T cells; type: cell-based; conditions: 1 µM, 37 °C, 1.5 hours; detected immediately, 5 hours or 20 hours after treatment
# T4 construct: expressed in transfected cells; host or cells: 293T
# T4 sequence (O95977 1-384): T1 sequence (O95977 1-384)
# Method: Therefore, the recovery degree of S1PR4 after internalization caused by Compound 30 was evaluated, and the recovery effect following receptor internalization caused by Compound 30 was assessed in cells with high S1PR4 expression.
# [3] = S1PR4, Tango-S1PR4-CHO-K1 cells, mean ± SD, read-out: EC50
# [4] = β-arrestin recruitment, 20 h drug treatment, top 45 µM, 9 serial 5-fold dilutions, positive control 25 µM BAF-312, read-out: Tango-hS1P4-CHO EC50
SMILES,EC50 (hS1P4 [1]; [3]) [nM],EC50 (hS1P4 [1]; [4]) [nM],selectivity over S1PR1 (hS1P4 [2]),EC50 (S1PR2; read-out: EC50) [nM],EC50 (hS1P4-R-79C) [nM],EC50 (S1PR2),S1PR4 internalization (expression of S1PR4 receptor on the cell surface) (S1PR4)
"CCc1cc(/C(C)=N/OCc2ccc(-c3cnc(F)cn3)c(C)c2)ccc1CN1CC[C@H](C(=O)O)C1 [Compound 67, (S, E)-1-(2-ethyl-4-(1-(((4-(5-fluoropyrazin-2-yl)-3-methylbenzyl)oxy)imino)ethyl)benzyl)pyrrolidine-3-carboxylic acid]",1.8 ± 0.43,1.8,more than 100 fold,> 10000,,,
CCc1cc(/C(C)=N/OCc2ccc(-c3ccccc3)c(C)c2)ccc1CN1CC[C@H](C(=O)O)C1 [Compound 30],9.09 ± 0.67,9.09,approximately 10 fold,> 10000,15,no agonist activity,sustained internalization of S1PR4 for up to 20 hours
